Test [1] relates to A549/TR. Description: Synergistic antiproliferative activity against human A549/Taxol cells assessed as increase in taxol by measuring combination index at 30 uM incubated for 72 hrs in presence of 1 uM taxol by MTT assay. The format is functional.
Test [2] deals with A549/TR. The test can be described thus: Reversal of taxol resistance human A549/Taxol cells assessed as increase in sensitivity incubated for 72 hrs by MTT assay. The format is functional, cell-based. In general terms: Tetrazolium assays rely on reduction of a dye to a coloured formazan, in cell work by metabolically active cells.
Test [3] concerns A549/TR. The test can be described thus: Synergistic antiproliferative activity against human A549/Taxol cells assessed as increase in taxol by measuring combination index at 3.75 uM incubated for 72 hrs in presence of 0.13 uM taxol by MTT assay. It is filed as functional.
The subject of test [4] is A549/TR. The test can be described thus: Synergistic antiproliferative activity against human A549/Taxol cells assessed as inhibition of cell growth at 3.75 to 30 uM incubated for 72 hrs in presence of taxol by MTT assay. It is filed as functional. Also noted: scale not given: the % may be the effect or the level left. The following applies: dose 3.75-30 µM.
For test [5], the system named is A549/TR. Description: Synergistic antiproliferative activity against human A549/Taxol cells assessed as increase in taxol by measuring combination index at 3.75 uM incubated for 72 hrs in presence of 1 uM taxol by MTT assay. The format is functional.
Test [6] relates to A549/TR. Description: Reversal of taxol resistance human A549/Taxol cells assessed as increase in sensitivity at 5 uM incubated for 72 hrs by MTT assay. The format is functional, cell-based.
For test [7], the target named is Focal adhesion kinase 1 (Homo sapiens) (UniProt Q05397). The test can be described thus: Inhibition of FAK pathway in human A549/Taxol cells assessed as decrease in phosphorylated FAK level at 2.5 to 5 uM incubated for 24 hrs. The format is cell-based. The note with it: dose 2.5-5 µM.
Focal adhesion kinase 1 (Homo sapiens), sequence (Q05397 2-1052 limits assumed): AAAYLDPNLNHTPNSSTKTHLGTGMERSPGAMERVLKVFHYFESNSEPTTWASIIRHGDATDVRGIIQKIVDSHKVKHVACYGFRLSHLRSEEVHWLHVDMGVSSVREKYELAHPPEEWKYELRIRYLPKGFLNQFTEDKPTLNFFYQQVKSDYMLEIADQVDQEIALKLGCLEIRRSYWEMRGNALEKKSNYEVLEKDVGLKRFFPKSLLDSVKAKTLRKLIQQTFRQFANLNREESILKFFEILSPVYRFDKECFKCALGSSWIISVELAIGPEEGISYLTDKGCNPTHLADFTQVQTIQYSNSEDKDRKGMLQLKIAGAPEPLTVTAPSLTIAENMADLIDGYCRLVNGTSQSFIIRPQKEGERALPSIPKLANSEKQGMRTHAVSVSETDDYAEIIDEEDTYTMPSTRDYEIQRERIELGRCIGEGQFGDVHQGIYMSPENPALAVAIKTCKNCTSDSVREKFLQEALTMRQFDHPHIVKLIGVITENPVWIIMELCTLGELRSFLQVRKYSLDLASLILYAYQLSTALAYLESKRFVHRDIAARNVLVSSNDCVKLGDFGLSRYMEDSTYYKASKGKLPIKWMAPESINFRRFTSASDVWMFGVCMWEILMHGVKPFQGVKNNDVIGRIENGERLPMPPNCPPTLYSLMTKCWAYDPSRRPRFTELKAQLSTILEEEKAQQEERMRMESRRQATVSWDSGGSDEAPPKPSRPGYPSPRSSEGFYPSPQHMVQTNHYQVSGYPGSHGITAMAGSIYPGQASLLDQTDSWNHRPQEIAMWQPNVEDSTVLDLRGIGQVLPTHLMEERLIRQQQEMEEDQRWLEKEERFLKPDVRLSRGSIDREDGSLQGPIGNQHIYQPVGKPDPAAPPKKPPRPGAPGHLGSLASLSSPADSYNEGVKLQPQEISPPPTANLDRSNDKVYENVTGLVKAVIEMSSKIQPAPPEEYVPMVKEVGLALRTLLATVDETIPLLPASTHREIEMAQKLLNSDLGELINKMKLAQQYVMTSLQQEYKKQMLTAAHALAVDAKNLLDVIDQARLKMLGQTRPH
Test [8] has as its system A549/TR. Description: Synergistic antiproliferative activity against human A549/Taxol cells assessed as increase in taxol by measuring combination index at 30 uM incubated for 72 hrs in presence of 0.06 uM taxol by MTT assay. It is filed as functional.
In test [9] the test system is A549/TR. Description: Inhibition of cell migration in human A549/Taxol cells incubated for 36 hrs. The format is functional, cell-based. The following applies: dose 2.5-10 µM.
The test system of test [10] is A549/TR. The test can be described thus: Synergistic antiproliferative activity against human A549/Taxol cells assessed as increase in taxol by measuring combination index at 7.50 uM incubated for 72 hrs in presence of 0.13 uM taxol by MTT assay. The format is functional. The note with it: dose 7.5 µM.
Test [11] deals with A549/TR. Description: Synergistic antiproliferative activity against human A549/Taxol cells assessed as increase in taxol by measuring combination index at 30 uM incubated for 72 hrs in presence of 0.13 uM taxol by MTT assay. The format is functional.
Test [12] has as its system A549/TR. Description: Downregulation of Vimentin expression level in human A549/Taxol cells at 2.5 to 10 uM incubated for 24 hrs by densitometry analysis. The format is functional, cell-based. The note with it: dose 2.5-10 µM.
Test [13] concerns NCI-H460. Description: Antiproliferative activity against human taxol resistance human NCI-H460 cells assessed as reduction in cell viability incubated for 24 hrs by MTT assay. It is filed as functional, cell-based. The note with it: dose 5.0 µM.
Test [14] deals with A549. The test can be described thus: Inhibition of DMBA-induced CYP1B1 overexpression in human A549 cells assessed as increase in FAK level incubated for 24 hrs by densitometry analysis. The note with it: dose 5.0 µM. It is filed as functional, cell-based.
In test [15] the test system is A549. The test can be described thus: Inhibition of DMBA-induced ERK1/2 overexpression in human taxol resistance A549 cells at 5 uM incubated for 24 hrs. It is filed as functional, cell-based.
In test [16] the test system is A549. The test can be described thus: Inhibition of cell migration in DMBA-induced human A549 cells at 5 uM incubated for 48 hrs by inverted microscopic analysis. It is filed as functional, cell-based.
Test [17] concerns NCI-H460. Description: Inhibition of DMBA-induced CYP1B1 overexpression in human NCI-H460 cells assessed as increase in Paxillin level incubated for 24 hrs by densitometry analysis. The format is functional, cell-based. The following applies: dose 5.0 µM.
Test [18] concerns NCI-H460. The test can be described thus: Inhibition of DMBA-induced CYP1B1 overexpression in human NCI-H460 cells assessed as increase in FAK level incubated for 24 hrs by densitometry analysis. The format is functional, cell-based. The note with it: dose 5.0 µM.
The subject of test [19] is A549. Description: Antiproliferative activity against human taxol resistance human A549 cells assessed as reduction in cell viability incubated for 24 hrs by MTT assay. The format is functional, cell-based. The note with it: dose 5.0 µM.
The subject of test [20] is A549. Description: Inhibition of DMBA-induced CYP1B1 overexpression in human A549 cells assessed as increase in SRC level at 5 uM incubated for 24 hrs by densitometry analysis. The format is functional, cell-based.
The subject of test [21] is A549. The test can be described thus: Inhibition of DMBA-induced CYP1B1 overexpression in human A549 cells assessed as decrease in Vimentin level at 5 uM incubated for 24 hrs by densitometry analysis. The format is functional, cell-based.
For test [22], the system named is A549. Description: Inhibition of DMBA-induced AKT overexpression in human taxol resistance A549 cells incubated for 24 hrs. It is filed as functional, cell-based. The note with it: dose 5.0 µM.
The next test deals with T1, Cytochrome P450 1A2 (Homo sapiens, UniProt P05177).
T1 sequence (P05177 whole entry): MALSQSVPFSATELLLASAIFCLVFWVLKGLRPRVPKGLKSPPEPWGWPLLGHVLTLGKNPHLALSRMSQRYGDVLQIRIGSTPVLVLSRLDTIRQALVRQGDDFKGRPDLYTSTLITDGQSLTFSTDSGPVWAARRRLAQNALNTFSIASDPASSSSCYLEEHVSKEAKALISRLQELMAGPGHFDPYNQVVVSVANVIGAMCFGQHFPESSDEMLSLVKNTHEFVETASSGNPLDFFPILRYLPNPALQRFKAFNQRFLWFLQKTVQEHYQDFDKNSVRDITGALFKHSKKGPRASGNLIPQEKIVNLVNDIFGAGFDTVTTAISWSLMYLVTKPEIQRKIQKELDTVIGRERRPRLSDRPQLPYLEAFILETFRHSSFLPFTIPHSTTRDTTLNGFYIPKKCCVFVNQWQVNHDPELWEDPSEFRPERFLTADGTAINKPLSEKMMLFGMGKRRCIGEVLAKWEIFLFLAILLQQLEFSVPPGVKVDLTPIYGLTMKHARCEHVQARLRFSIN
The test can be described thus: Inhibition of recombinant human CYP1A2 using 7-ethyl-0-resorufin as substrate incubated for 30 mins in presence of NADPH by EROD assay.

In test [23] the test system is A549. The test can be described thus: Inhibition of DMBA-induced CYP1B1 overexpression in human A549 cells assessed as increase in N-cadherin level incubated for 24 hrs by densitometry analysis. It is filed as functional, cell-based. The note with it: dose 5.0 µM.
In test [24] the test system is NCI-H460. The test can be described thus: Inhibition of cell invasion in DMBA-induced human NCI-H460 cells at 5 uM by optical microscopic analysis. The format is functional, cell-based.
In test [25] the test system is NCI-H460. Description: Inhibition of DMBA-induced CYP1B1 overexpression in human NCI-H460 cells assessed as increase in N-cadherin level incubated for 24 hrs by densitometry analysis. The following applies: dose 5.0 µM. It is filed as functional, cell-based.
Test [26] concerns NCI-H460. Description: Inhibition of DMBA-induced CYP1B1 overexpression in human NCI-H460 cells assessed as decrease in E-cadherin level incubated for 24 hrs by densitometry analysis. The format is functional, cell-based. The note with it: dose 5.0 µM.
The subject of test [27] is A549. Description: Inhibition of cell invasion in DMBA-induced human A549 cells at 5 uM by optical microscopic analysis. The format is functional, cell-based.
The test system of test [28] is NCI-H460. The test can be described thus: Inhibition of DMBA-induced CYP1B1 overexpression in human NCI-H460 cells assessed as decrease in Vimentin level at 5 uM incubated for 24 hrs by densitometry analysis. It is filed as functional, cell-based.
Another test deals with A549/Taxol. Description: Inhibition of AKT pathway in human A549/Taxol cells assessed as decrease in phosphorylated AKT level at 5 uM incubated for 24 hrs. The format is cell-based.
In test [29] the test system is A549. The test can be described thus: Inhibition of DMBA-induced CYP1B1 overexpression in human A549 cells assessed as effect on Snail level at 5 uM incubated for 24 hrs by densitometry analysis. The format is functional, cell-based.
The subject of test [30] is A549. Description: Inhibition of DMBA-induced CYP1B1 expression level in human A549 cells at 5 uM incubated for 24 hrs. It is filed as functional, cell-based.
Test [31] has as its system A549. The test can be described thus: Inhibition of DMBA-induced CYP1B1 overexpression in human A549 cells assessed as effect on E-cadherin level at 5 uM incubated for 24 hrs by densitometry analysis. The format is functional, cell-based.

Calls of active or inactive are those of the source. The calls are words filed in the database; no cut-off is given here.

On to `COc1cc(Nc2nc(-c3nc(-c4ccccc4F)cs3)cs2)cc(OC)c1`, for which the CI in the test on A549/TR [1] amounted to 0.02; in the test with A549/TR [3], 0.55; in the test with A549/TR [5] it was 1.89; in the test on A549/TR [8] it was 0.09; in the test on A549/TR [10] it was 0.31; in the test on A549/TR [11] it was 0.11. Moreover, the result with A549/TR [2] and in the test on A549/TR [6] was Active. The Activity in the test with A549/TR [4] is given as 62%. In addition, in test [7], the inhibition entry was “Active”. For the same molecule, in the test on A549/TR [9], the inhibition result is “Dose-Dependent Effect”. Further, in the test with A549/TR [12], the outcome was inactive.

Broadly, the IC50 is the concentration that inhibits the measured activity by half. On to `COc1cc(/C=C/c2ccc(OC)cc2OC)cc(OC)c1`, for which the Activity result with NCI-H460 [13] and in the test on A549 [19] was “Dose-Dependent Effect” throughout. Moreover, in the test on A549/TR [2], the result was Active. The inhibition result in the test on A549 [14], with NCI-H460 [17], with NCI-H460 [18], with A549 [22], in the test on A549 [23] and with NCI-H460 [25] was “Dose-Dependent Effect” each time. In addition, the inhibition result with NCI-H460 [26] is “Dose-Dependent Effect”. In addition, the inhibition entry with A549 [15], with A549 [16], with NCI-H460 [24], with A549 [27], in the test on A549/Taxol and in the test with A549 [30] was “Active” in each case. Also, the inhibition entry in the test on A549 [20], with A549 [21], with NCI-H460 [28], with A549 [29] and in the test on A549 [31] was “inactive” in each case. Besides, the 50% inhibitory concentration (IC50) at Cytochrome P450 1A2 is 2390 nM.

These data come from ChEMBL document CHEMBL5236635, “Structure-Based Drug Design and Synthesis of Novel N-Aryl-2,4-bithiazole-2-amine CYP1B1-Selective Inhibitors in Overcoming Taxol Resistance in A549 Cells” (J Med Chem, 2022).
